{
  "source": "patent US20040192652A1",
  "about": "“Pharmaceutical combinations and methods for the treatment of leukemia” (priority 2002, published 2004)",
  "key": {"KBM-7 cells": {"system": "KBM-7 cells", "conditions": "KBM7 cells", "description": "(§5) Two human CML, Ph+, p210 Bcr-Abl expressing cell lines were used, namely, KBM-5 and KBM-7. KBM-5 represents cells derived from a patient in the blastic phase of CML and is remarkable for the absence of normal c-ABL. KBM-7 has been identified to be a human near-haploid cell line.\n(§6) The cells were cultured in Iscove's modified Dulbecco's medium supplemented with 10% fetal calf serum (Invitrogen Corp., Carlsbad, Calif.) at 37° C. in atmosphere of 5% CO2 in air.\n(§7) Briefly, cells were seeded in triplicate in 96-well microtiter plates (Falcon, USA) at a concentration of 4×10^5 cells/ml. After exposure to the drug(s) for 72 h, 20 μl of MTS solution were added to each well, the plates were incubated for additional 4 h at 37° C., and absorbance at 490 nm was measured."}, "[1]": {"system": "KBM-5 chronic myeloid leukemia cells", "test": "In vivo antitumor activity (survival) in mice bearing KBM-5 cells", "protocol": "(§1) Three to five week-old ICR SCID female mice weighting 20-25 g were obtained from Taconic farms. They were acclimatized for a week prior to the experiment. The animals were maintained on a standard animals feed and drinking water ad libitum. Mice were housed in an air-conditioned room at the temperature of 22±1° C. and 50-70% humidity with a 12/12 h-light/dark cycle throughout the experiment.\n(§2) Mice were irradiated (1×250 centigray; cGy) and injected i.p. with 2×10^7 or 2,4×10^7 KBM-5 or KBM-5R tumor cells, respectively. […] In primary experiments (with KBM-5 cells) or secondary experiments (with KBM-5R cells), tumor-bearing animals were randomised (8-10 per group and treated by Troxatyl™ i.p. at 5, 10, 20, or 25 mg/kg once a day for 5 consecutive days (days 20-24). Control (untreated) mice received saline. In third experiments (with KBM-5 cells), tumor bearing animals (6 per group) were treated by one of the following schemes:\n(§3) Animals in complete remission, free of detectable tumor (negative for human DQα-gen) were considered cured.\n(§4) LTS were electively sacrificed on Day 95 in single agent experiments or on Day 100 in combination treatment experiment."}, "KBM-5 cells": {"system": "KBM-5 cells", "conditions": "KBM5 cells", "description": "as §5, §6, §7"}, "[2]": {"system": "KBM-5R chronic myeloid leukemia cells (STI-571 resistant)", "test": "In vivo antitumor activity (survival) in mice bearing KBM-5R cells", "conditions": "for ILS % / Median survival time / Rang survival time / T/C %: qd × 5; for LTS (long term survivors): qd × 5, sacrificed Day 95", "protocol": "as §1, §2, §3, §4"}, "[3]": {"conditions": "KBM-5, third (combination) experiment, 50 mg/kg ip, bid × 10"}, "[4]": {"conditions": "KBM-5, primary experiment, 5 mg/kg ip, qd × 5"}, "[5]": {"conditions": "KBM-5, primary experiment, 10 mg/kg ip, qd × 5"}, "[6]": {"conditions": "KBM-5, primary experiment, 20 mg/kg ip, qd × 5"}, "[7]": {"conditions": "KBM-5, primary experiment, 25 mg/kg ip, qd × 5"}, "[8]": {"conditions": "KBM-5, third (combination) experiment, 10 mg/kg ip, qd × 5"}, "[9]": {"conditions": "KBM-5, third (combination) experiment, 25 mg/kg ip, qd × 5"}},
  "note": "Counter-ions that a name gives are not always drawn.",
  "data": [
    {"smiles": "Cc1ccc(NC(=O)c2ccc(CN3CCN(C)CC3)cc2)cc1Nc1nccc(-c2cccnc2)n1", "note": "[STI-571, imatinib mesylate]", "values": [
      {"measurement": "STI-571 concentration up to which cells still proliferated", "setting": "KBM5-STI^R1.0 cells", "result": "up to 10 μM"},
      {"measurement": "response to STI-571 exposure", "setting": "KBM-7 cells", "result": "apoptosis"},
      {"measurement": "ILS %", "setting": "[1]; [3]", "result": 8.95, "unit": "%"},
      {"measurement": "Median survival time", "setting": "[1]; [3]", "result": 31.16, "unit": "days"},
      {"measurement": "Rang survival time", "setting": "[1]; [3]", "result": "26 to 40", "unit": "days"},
      {"measurement": "STI-571 concentration at which proliferation was almost completely abolished", "setting": "KBM7-STI^R1.0 cells", "result": 7.5, "unit": "µM"},
      {"measurement": "response to STI-571 exposure", "setting": "KBM-5 cells", "result": "G0/G1 cell cycle arrest"}
    ]},
    {"smiles": "Nc1ccn([C@@H]2CO[C@H](CO)O2)c(=O)n1", "note": "[Troxatyl ™, (−)-β-L-Dioxolane-Cytidine]", "values": [
      {"measurement": "ILS %", "setting": "[2]; 5 mg/kg ip", "result": 13.93, "unit": "%"},
      {"measurement": "Median survival time", "setting": "[2]; 5 mg/kg ip", "result": 37.142, "unit": "days"},
      {"measurement": "Rang survival time", "setting": "[2]; 5 mg/kg ip", "result": "36 to 50", "unit": "days"},
      {"measurement": "T/C %", "setting": "[2]; 5 mg/kg ip", "result": 113.93, "unit": "%"},
      {"measurement": "LTS (long term survivors)", "setting": "[2]; 5 mg/kg ip", "result": 2},
      {"measurement": "ILS %", "setting": "[2]; 10 mg/kg ip", "result": 50.64, "unit": "%"},
      {"measurement": "Median survival time", "setting": "[2]; 10 mg/kg ip", "result": 49.11, "unit": "days"},
      {"measurement": "Rang survival time", "setting": "[2]; 10 mg/kg ip", "result": "36 to 69", "unit": "days"},
      {"measurement": "T/C %", "setting": "[2]; 10 mg/kg ip", "result": 150.64, "unit": "%"},
      {"measurement": "ILS %", "setting": "[2]; 20 mg/kg ip", "result": 56.84, "unit": "%"},
      {"measurement": "Median survival time", "setting": "[2]; 20 mg/kg ip", "result": 51.13, "unit": "days"},
      {"measurement": "Rang survival time", "setting": "[2]; 20 mg/kg ip", "result": "37 to 69", "unit": "days"},
      {"measurement": "T/C %", "setting": "[2]; 20 mg/kg ip", "result": 156.84, "unit": "%"},
      {"measurement": "ILS %", "setting": "[2]; 25 mg/kg ip", "result": 54.66, "unit": "%"},
      {"measurement": "Median survival time", "setting": "[2]; 25 mg/kg ip", "result": 50.42, "unit": "days"},
      {"measurement": "Rang survival time", "setting": "[2]; 25 mg/kg ip", "result": "35 to 69", "unit": "days"},
      {"measurement": "T/C %", "setting": "[2]; 25 mg/kg ip", "result": 154.66, "unit": "%"},
      {"measurement": "LTS (long term survivors)", "setting": "[2]; 25 mg/kg ip", "result": 1},
      {"measurement": "ILS %", "setting": "[1]; [4]", "result": 57.09, "unit": "%"},
      {"measurement": "Median survival time", "setting": "[1]; [4]", "result": 54, "unit": "days"},
      {"measurement": "Rang survival time", "setting": "[1]; [4]", "result": "46 to 66", "unit": "days"},
      {"measurement": "T/C %", "setting": "[1]; [4]", "result": 157.09, "unit": "%"},
      {"measurement": "LTS (long term survivors)", "setting": "[1]; KBM-5, primary experiment, 5 mg/kg ip, qd × 5, sacrificed Day 95", "result": 1},
      {"measurement": "ILS %", "setting": "[1]; [5]", "result": 45.45, "unit": "%"},
      {"measurement": "Median survival time", "setting": "[1]; [5]", "result": 50, "unit": "days"},
      {"measurement": "Rang survival time", "setting": "[1]; [5]", "result": "44 to 66", "unit": "days"},
      {"measurement": "T/C %", "setting": "[1]; [5]", "result": 145.45, "unit": "%"},
      {"measurement": "ILS %", "setting": "[1]; [6]", "result": 33.82, "unit": "%"},
      {"measurement": "Median survival time", "setting": "[1]; [6]", "result": 46, "unit": "days"},
      {"measurement": "Rang survival time", "setting": "[1]; [6]", "result": "36 to 58", "unit": "days"},
      {"measurement": "T/C %", "setting": "[1]; [6]", "result": 133.82, "unit": "%"},
      {"measurement": "ILS %", "setting": "[1]; [7]", "result": 68.73, "unit": "%"},
      {"measurement": "Median survival time", "setting": "[1]; [7]", "result": 58, "unit": "days"},
      {"measurement": "Rang survival time", "setting": "[1]; [7]", "result": "35 to 74", "unit": "days"},
      {"measurement": "T/C %", "setting": "[1]; [7]", "result": 168.73, "unit": "%"},
      {"measurement": "ILS %", "setting": "[1]; [8]", "result": 50.90, "unit": "%"},
      {"measurement": "Median survival time", "setting": "[1]; [8]", "result": 43.16, "unit": "days"},
      {"measurement": "Rang survival time", "setting": "[1]; [8]", "result": "38 to 50", "unit": "days"},
      {"measurement": "T/C %", "setting": "[1]; [8]", "result": 150.9, "unit": "%"},
      {"measurement": "ILS %", "setting": "[1]; [9]", "result": 71.33, "unit": "%"},
      {"measurement": "Median survival time", "setting": "[1]; [9]", "result": 49, "unit": "days"},
      {"measurement": "Rang survival time", "setting": "[1]; [9]", "result": "40 to 56", "unit": "days"},
      {"measurement": "T/C %", "setting": "[1]; [9]", "result": 171.33, "unit": "%"}
    ]}
  ]
}
